The CombiSolv-Exp solvation set (Vermeire and Green 2021)

Assay: solvent given as SMILES
[1] = in CCCCCCCCC=CCCCCCCCC(=O)OCC(COC(=O)CCCCCCCC=CCCCCCCCC)OC(=O)CCCCCCCC=CCCCCCCCC

With `CNc1nc(NC(C)C)nc(SC)n1` the “solvation free energy, 298 K” value (in O) was -10.5 kcal/mol.

For `CCSCC`, the “solvation free energy, 298 K” value (in O) was -1.46 kcal/mol.

In the case of `C1CCCNCC1`, the “solvation free energy, 298 K” value (in C1CCCCC1) is reported as -5.66 kcal/mol.

With `CCCCCCCCCCCCOC(=O)c1ccccc1C(=O)OCCCCCCCCCCCC` the “solvation free energy, 298 K” value (in O) was -5.92 kcal/mol.

For `Clc1cc(Cl)c(-c2ccccc2)cc1Cl`, the “solvation free energy, 298 K” value (in CCCCCCCCO) was -10.6 kcal/mol.

In the case of `Cc1cccc2c(C)cccc12`, the “solvation free energy, 298 K” value [1] is reported as -9.3 kcal/mol and the “solvation free energy, 298 K” value (in O) is reported as -2.78 kcal/mol.

In the case of `Cc1ccc(C(=O)N(C)C)cc1`, the “solvation free energy, 298 K” value (in O) is reported as -9.76 kcal/mol.

In the case of `CC(=O)OCC=C(C)CCC=C(C)CCC=C(C)C`, the “solvation free energy, 298 K” value (in O) is reported as -3.96 kcal/mol.

For `CC(=O)OC1CC(C)CCC1C(C)C` (stereo not given), the “solvation free energy, 298 K” value (in O) was -2.59 kcal/mol.

With `CCCCCCCCCCCOC(=O)c1ccccc1C(=O)OCCCCCCCCCCC` the “solvation free energy, 298 K” value (in O) was -6.08 kcal/mol.

With `CC(=O)c1ccncc1` the “solvation free energy, 298 K” value (in O) was -7.62 kcal/mol.

With `CC(=O)CC(=O)C(F)(F)F` the “solvation free energy, 298 K” value (in O) was -4.91 kcal/mol.

In the case of `Nc1ccc(S(=O)(=O)NC(=O)c2ccccc2)cc1`, the “solvation free energy, 298 K” value (in O) is reported as -18.1 kcal/mol.

With `C1COCCOCCOCCOCCOCCO1` the “solvation free energy, 298 K” value (in Cc1cccc(C)c1) was -12.9 kcal/mol and the “solvation free energy, 298 K” value (in O) was -15.6 kcal/mol.

For `Cc1cccc(O)c1C`, the “solvation free energy, 298 K” value (in CC(C)CC(C)(C)C) was -6.27 kcal/mol, the “solvation free energy, 298 K” value (in CCCCCC) was -6.67 kcal/mol and the “solvation free energy, 298 K” value (in O) was -6.12 kcal/mol.

For `OC(Cl)CCCl` (stereo not given), the “solvation free energy, 298 K” value (in CCCCCCCCCCO) was -7 kcal/mol.

In the case of `CC1=CC2C(CCC(C)=CCC1)C2(C)C` (stereo not given), the “solvation free energy, 298 K” value (in O) is reported as -0.52 kcal/mol.

In the case of `CC1CCC2(C(C)C)CC12` (stereo not given), the “solvation free energy, 298 K” value (in O) is reported as 1.13 kcal/mol.

For `CCC(C)(C)OC`, the “solvation free energy, 298 K” value (in CC(=O)N(C)C) was -3.92 kcal/mol, the “solvation free energy, 298 K” value (in CC(C)(C)O) was -4.22 kcal/mol and the “solvation free energy, 298 K” value (in CC(C)CC(C)(C)C) was -4.24 kcal/mol. The “solvation free energy, 298 K” value (in CCCCCC) was -4.47 kcal/mol, the “solvation free energy, 298 K” value (in CCCCCCC) was -4.24 kcal/mol and the “solvation free energy, 298 K” value (in CCCCCCCCCC) was -4.16 kcal/mol. The “solvation free energy, 298 K” value (in CCCCCCCCO) was -4.07 kcal/mol, the “solvation free energy, 298 K” value (in CCCCN(C=O)CCCC) was -4.11 kcal/mol and the “solvation free energy, 298 K” value (in CCN1CCCC1=O) was -3.85 kcal/mol. For the same compound, the “solvation free energy, 298 K” value (in CCN(CC)C(C)=O) was -4.04 kcal/mol, the “solvation free energy, 298 K” value (in CCNC(C)=O) was -3.86 kcal/mol and the “solvation free energy, 298 K” value (in CCNC=O) was -3.79 kcal/mol. The “solvation free energy, 298 K” value (in CN1CCCCC1=O) was -3.86 kcal/mol, the “solvation free energy, 298 K” value (in CN(C)C=O) was -3.78 kcal/mol and the “solvation free energy, 298 K” value (in CNC(C)=O) was -3.75 kcal/mol. For the same compound, the “solvation free energy, 298 K” value (in CNC=O) was -3.62 kcal/mol, the “solvation free energy, 298 K” value (in CO) was -4.26 kcal/mol and the “solvation free energy, 298 K” value (in O) was -1.77 kcal/mol.

For `Brc1ccc(Br)cc1`, the “solvation free energy, 298 K” value (in CC(C)(C)O) was -6.86 kcal/mol, the “solvation free energy, 298 K” value (in CC(C)CCO) was -7.01 kcal/mol and the “solvation free energy, 298 K” value (in CC(C)CO) was -6.92 kcal/mol. For the same compound, the “solvation free energy, 298 K” value (in CCC(C)O) was -6.94 kcal/mol, the “solvation free energy, 298 K” value (in CCCC(C)O) was -6.98 kcal/mol and the “solvation free energy, 298 K” value (in CCCCCC) was -7.25 kcal/mol. For the same compound, the “solvation free energy, 298 K” value (in CCCCCCC) was -7.55 kcal/mol, the “solvation free energy, 298 K” value [1] was -7.01 kcal/mol and the “solvation free energy, 298 K” value (in CCCCCCCCO) was -7.11 kcal/mol. For the same compound, the “solvation free energy, 298 K” value (in CCCCOCCCC) was -7.74 kcal/mol, the “solvation free energy, 298 K” value (in CCOCC) was -8.21 kcal/mol and the “solvation free energy, 298 K” value (in COC(C)(C)C) was -7.73 kcal/mol. The “solvation free energy, 298 K” value (in ClC(Cl)(Cl)Cl) was -7.9 kcal/mol.

For `CC#N`, the “solvation free energy, 298 K” value (in Brc1cccc2ccccc12) was -3.45 kcal/mol, the “solvation free energy, 298 K” value (in C1CCOC1) was -4.3 kcal/mol and the “solvation free energy, 298 K” value (in C1COCCO1) was -4.45 kcal/mol. For the same compound, the “solvation free energy, 298 K” value (in CC(=O)N(C)C) was -4.8 kcal/mol, the “solvation free energy, 298 K” value (in CC(=O)OCc1ccccc1) was -4.08 kcal/mol and the “solvation free energy, 298 K” value (in CC(C)=O) was -3.83 kcal/mol. The “solvation free energy, 298 K” value (in CC(C)CCCC(C)CCCC(C)CCCCC(C)CCCC(C)CCCC(C)C) was -1.87 kcal/mol, the “solvation free energy, 298 K” value (in CCC(C)=O) was -4.46 kcal/mol and the “solvation free energy, 298 K” value (in CCCCCC) was -2.41 kcal/mol. The “solvation free energy, 298 K” value (in CCCCCCC) was -2.28 kcal/mol, the “solvation free energy, 298 K” value (in CCCCCCCC) was -2.17 kcal/mol and the “solvation free energy, 298 K” value (in CCCCCCCCCCCCCCCC) was -2.04 kcal/mol. For the same compound, the “solvation free energy, 298 K” value (in CCCCCCCCO) was -3.15 kcal/mol, the “solvation free energy, 298 K” value (in CCCCCl) was -3.63 kcal/mol and the “solvation free energy, 298 K” value (in CCCCN(C=O)CCCC) was -4.08 kcal/mol. The “solvation free energy, 298 K” value (in CCCCO) was -3.55 kcal/mol, the “solvation free energy, 298 K” value (in CCCCOCCCC) was -2.89 kcal/mol and the “solvation free energy, 298 K” value (in CCO) was -3.96 kcal/mol. The “solvation free energy, 298 K” value (in CCOC(C)=O) was -4.19 kcal/mol, the “solvation free energy, 298 K” value (in CCOCC) was -3.63 kcal/mol and the “solvation free energy, 298 K” value (in CN1CCCCC1=O) was -4.65 kcal/mol. For the same compound, the “solvation free energy, 298 K” value (in CN(C)C=O) was -4.65 kcal/mol, the “solvation free energy, 298 K” value (in CNC(C)=O) was -4.23 kcal/mol and the “solvation free energy, 298 K” value (in CO) was -4.04 kcal/mol. For the same compound, the “solvation free energy, 298 K” value (in COC(C)(C)C) was -3.67 kcal/mol, the “solvation free energy, 298 K” value (in COC(C)=O) was -4.53 kcal/mol and the “solvation free energy, 298 K” value (in Cc1ccc(C)cc1) was -3.44 kcal/mol. The “solvation free energy, 298 K” value (in ClC(Cl)(Cl)Cl) was -3.03 kcal/mol, the “solvation free energy, 298 K” value (in ClC(Cl)Cl) was -4.43 kcal/mol and the “solvation free energy, 298 K” value (in ClCCCl) was -4.41 kcal/mol. For the same compound, the “solvation free energy, 298 K” value (in ClCCl) was -4.71 kcal/mol, the “solvation free energy, 298 K” value (in Clc1ccccc1) was -3.74 kcal/mol and the “solvation free energy, 298 K” value (in NC=O) was -4.37 kcal/mol. The “solvation free energy, 298 K” value (in O) was -3.92 kcal/mol, the “solvation free energy, 298 K” value (in O=C1CCCCC1) was -4.3 kcal/mol and the “solvation free energy, 298 K” value (in [2H]O[2H]) was -4.1 kcal/mol. For the same compound, the “solvation free energy, 298 K” value (in c1ccc2ncccc2c1) was -3.98 kcal/mol.

For `CCOP(=S)(OCC)Oc1cc(C)nc(C(C)C)n1`, the “solvation free energy, 298 K” value (in O) was -6.48 kcal/mol.

In the case of `O=C(O)c1cccc([N+](=O)[O-])c1C(=O)O`, the “solvation free energy, 298 K” value (in C1CCOC1) is reported as -19.1 kcal/mol, the “solvation free energy, 298 K” value (in C1COCCO1) is reported as -18.7 kcal/mol and the “solvation free energy, 298 K” value (in CC(C)=O) is reported as -18.5 kcal/mol. The “solvation free energy, 298 K” value (in CC(C)CO) was -17.8 kcal/mol, the “solvation free energy, 298 K” value (in CC(C)O) was -18.4 kcal/mol and the “solvation free energy, 298 K” value (in CCC(C)O) was -18.1 kcal/mol. For the same compound, the “solvation free energy, 298 K” value (in CCCCCCCO) was -17.6 kcal/mol, the “solvation free energy, 298 K” value (in CCCCCCO) was -17.7 kcal/mol and the “solvation free energy, 298 K” value (in CCCCCO) was -17.8 kcal/mol. For the same compound, the “solvation free energy, 298 K” value (in CCCCO) was -17.9 kcal/mol, the “solvation free energy, 298 K” value (in CCCO) was -18.3 kcal/mol and the “solvation free energy, 298 K” value (in CCOC(C)=O) was -17.3 kcal/mol. For the same compound, the “solvation free energy, 298 K” value (in COC(C)=O) was -18.2 kcal/mol and the “solvation free energy, 298 K” value (in O) was -17.3 kcal/mol.

With `CC(C)C1=CC2=CCC3C(C)(C)CCCC3(C)C2CC1` (stereo not given) the “solvation free energy, 298 K” value (in O) was -0.08 kcal/mol.

With `O=C(O)c1cc(O)c(O)c(O)c1` the “solvation free energy, 298 K” value (in CCO) was -19.8 kcal/mol.

For `Oc1ccccc1F`, the “solvation free energy, 298 K” value (in CC(C)CC(C)(C)C) was -4.58 kcal/mol, the “solvation free energy, 298 K” value (in CCCCCC) was -4.69 kcal/mol and the “solvation free energy, 298 K” value (in CCCCCCC) was -4.7 kcal/mol. For the same compound, the “solvation free energy, 298 K” value (in CCCCCCCC) was -4.52 kcal/mol, the “solvation free energy, 298 K” value (in CCCCCCCCCC) was -4.58 kcal/mol and the “solvation free energy, 298 K” value (in Cc1ccc(C)cc1) was -5.86 kcal/mol. For the same compound, the “solvation free energy, 298 K” value (in Cc1cccc(C)c1) was -5.89 kcal/mol, the “solvation free energy, 298 K” value (in Cc1ccccc1C) was -5.96 kcal/mol and the “solvation free energy, 298 K” value (in O) was -5.29 kcal/mol.

With `C=CC(C)(CCC=C(C)C)OC=O` (stereo not given) the “solvation free energy, 298 K” value (in O) was -3.6 kcal/mol.

For `Clc1c(Cl)c(Cl)c2c(c1Cl)Oc1ccccc1O2`, the “solvation free energy, 298 K” value (in O) was -3.81 kcal/mol.

In the case of `CS(C)(=O)=O`, the “solvation free energy, 298 K” value (in O) is reported as -10.1 kcal/mol.

In the case of `CN1CCCC1`, the “solvation free energy, 298 K” value (in CCCCCCCCO) is reported as -4.97 kcal/mol.
